“And” between values parts separate entries of the source, which are not always exact repeats. Equal values may be shown once.
Columns and labels:
[1] = tested on: T47D ESR1 D538G cells; assay: Live-cell imaging growth studies and EC50 for growth inhibition, T47D ESR1 D538G; format: cell-based; details: Homo sapiens; T47D ESR1 D537G (so in the source); read-out: Approximate Half-maximal Effective Concentration (EC50) for growth inhibition
Procedure: MCF7, T47D, T47D ESR1 Y537S or T47D ESR1 D538G cells were seeded at 2×10^5 density per well in 6-well tissue culture-treated plates in DMEM/F12/10% FBS (2 mL total volume). […] The plate was then placed in the Incucyte® S3 Live-Cell Analysis System and images were acquired every 4 hours for a total of 5 days (120 hours). Data were analyzed using the Incucyte® Software v2020C which quantified cell surface area coverage as confluence values. Relative growth was calculated for all timepoints for all growth conditions relative to the confluence value observed for the control at 120 hours. Graphing and statistical analyses were performed using Graphpad Prism (GraphPad Software).

[2] = target: T1, ERα (Homo sapiens, UniProt P03372); assay: In vivo ERα degradation in MCF7 xenograft tumors (immunoblot); parameters: species or system NOD/SCID mice; details: for % ERα ↓: MCF7/estradiol model
T1 construct: robustly degrades ER in ER-positive breast cancer cell lines; endogenous in cells; host or cells: MCF7, T47D (cell culture); MCF7 and tamoxifen-resistant MCF7 xenograft tumours in mice
T1 sequence (P03372 1-595): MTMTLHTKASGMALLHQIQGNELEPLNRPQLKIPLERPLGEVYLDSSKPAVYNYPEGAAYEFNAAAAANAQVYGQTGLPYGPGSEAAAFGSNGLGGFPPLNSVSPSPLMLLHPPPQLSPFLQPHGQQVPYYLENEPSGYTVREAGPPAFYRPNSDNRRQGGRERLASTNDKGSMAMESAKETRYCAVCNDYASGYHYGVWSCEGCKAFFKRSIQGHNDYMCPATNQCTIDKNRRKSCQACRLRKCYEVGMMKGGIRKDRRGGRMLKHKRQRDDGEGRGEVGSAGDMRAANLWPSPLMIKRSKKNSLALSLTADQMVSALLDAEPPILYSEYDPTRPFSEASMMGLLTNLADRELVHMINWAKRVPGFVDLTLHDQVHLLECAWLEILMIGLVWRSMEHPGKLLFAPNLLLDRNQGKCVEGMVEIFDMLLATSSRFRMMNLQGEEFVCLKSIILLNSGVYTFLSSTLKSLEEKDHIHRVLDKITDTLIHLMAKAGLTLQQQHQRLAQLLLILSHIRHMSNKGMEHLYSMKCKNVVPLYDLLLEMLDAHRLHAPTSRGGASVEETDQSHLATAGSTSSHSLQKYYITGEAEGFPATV
Procedure: Approximately 18 hours after the final administration, mice were sacrificed, and MCF7 xenografts were harvested and lysed to determine ER levels by immunoblotting. […] Diet was supplemented with peanut butter to help maintain body weights.
Species: NOD/SCID female mice (Charles River, 6-7 weeks old upon arrival).
Animal handling: Axial mammary fat pad implantation of 5×10^6 MCF7 cells/200 per mouse (17β-estradiol 0.36 mg 90-day pellet implanted day before).
Dosing: Oral (gavage), once a day (QD) for 3 days (QD×3). Vehicle: 2% Tween80/PEG400 (‘PEG/Tween’).
Sampling: Terminal sacrifice was ˜18 hrs after last dose; tumors were harvested, divided and flash frozen. ERα levels were determined by immunoblotting.
Cell Lysis: flash frozen tumors were removed from −80° C. storage and placed on dry ice. RIPA lysis buffer and Halt protease inhibitors were used at 400 μl per tumor sample. A steel ball (5 mm) was placed in each sample for tissue disruption. Samples were lysed with TissueLyzer at 24 Hz for 4 minutes. The homogenization was stopped half way through the process and the block flipped over for the duration of the process. Steel beads were pulled out of the tubes and the lysates were spun down at 21,000×g for 15 minutes at 4° C. Lysates were then measured for total protein concentration by BCA (per manufacturer's protocol).
Detection of proteins by immunoblot: lysates were mixed with sample buffer and reducing agent (per manufacturer's protocol). Samples were denatured at 95° C. for 5 minutes in thermal cycler. Samples were cooled and spun down (5000×g; 1 minute) prior to loading on gel. Gels were loaded with 10 μg total protein per lane. Samples were loaded on 4-15% Criterion Tris/Glycine gels and run for 25 minutes at 250 constant volts in 1×Tris/Glycine/SDS buffer. Protein was transferred from gels to nitrocellulose with Bio-Rad Turbo on default setting. All blots were rinsed with distilled water and blocked for 1 hour at RT in 5% BSA in TBS-T (TBS with 0.1% Tween) on rocker. The blots were cut so that beta-actin and ERα can be detected from the same lane/sample.
Blots were incubated with primary antibody in 5% BSA in TBST (0.1%) overnight at 4° C. on rocker:
Blot was washed with TBST (0.1%) three times for 5 minutes on rocker at RT. Secondary antibody was added, and blots incubated at RT on rocker for 1 hour (1:18,000 anti-rabbit-HRP in TBS-T). Blots were washed 3 times in TBST (0.1%) for 5 minutes at RT on the rocker. Signal was developed with Pierce WestFemto maximum sensitivity substrate for 5 minutes and blots imaged on BioRad ChemiDoc.
Sampling: Tumors were measured twice weekly. Terminal sacrifice was ˜18 hr after last dose; tumors were harvested, divided, and flash frozen. ERα levels were determined by immunoblotting.
At study termination, the tumors were removed from the mice, and ERα levels were determined by immunoblotting the tumor homogenates.
Sampling: tumors were measured twice weekly. Terminal sacrifice was ˜18 hr after last dose; tumors were harvested, divided, and flash frozen. ERα levels were determined by immunoblotting.

O=C1CC[C@H](N2Cc3cc(N4CCN(CC5CCN(c6ccc([C@@H]7c8ccc(O)cc8CC[C@@H]7c7ccccc7)cc6)CC5)CC4)ccc3C2=O)C(=O)N1 [Compound (I-c), (3S)-3-[5-[4-[[1-[4-[(1R,2S)-6-hydroxy-2-phenyl-tetralin-1-yl]phenyl]-4-piperidyl]methyl]piperazin-1-yl]-1-oxo-isoindolin-2-yl]piperidine-2,6-dione]
EC50 [1]: 10 nM | reduction of tumor ERα levels vs vehicle ([2]; 10 mg/kg p.o. once daily x 3 days, ~18 h after last dose): up to 95% | reduction of tumor ERα levels vs vehicle ([2]; 3, 10 and 30 mg/kg daily oral, 28 days (all doses), at study termination): > 94% and > 90% | % ERα ↓ ([2]; 3 mg/kg): 95% | % ERα ↓ ([2]; 10 mg/kg): 97% | % ERα ↓ ([2]; 30 mg/kg): 94%

— patent US20220193072A1, “METHODS OF TREATING BREAST CANCER WITH TETRAHYDRONAPHTHALENE DERIVATIVES AS ESTROGEN RECEPTOR DEGRADER” (Arvinas Operations, Inc., priority 2020, published 2022)
